Experimental data taken from patent US8329681B2, “Methods and compositions for the efficient delivery of therapeutic agents to cells and animals” (University of Massachusetts, priority 2005, dated 2012).

Experiments:
CDK9 expression [1] = experiment: In vivo delivery of CDK9 siRNA with liposome by tail vein injection, CDK9 expression in spleen; parameters: species or system BALB/c mice; settings: Cy3-labeled CDk9 siRNA (25 μg) and liposome (125 μg), repeated 4 and 8 h later, within the initial 24 h after treatment
Protocol: (§1) Total RNA was extracted from tissues or cultured cells using Trizol (Invitrogen, Carlsbad, Calif.), and real-time RT-PCR for CDK9 and GAPDH mRNA quantification was carried out using 200 ng of total RNA and the QuantiTect SYBR Green RT-PCR Kit (Qiagen, Valencia, Calif.) according to the manufacturer's instructions. The ratio of CDK9 and GAPDH mRNA was calculated and expressed as a group average relative to the control group. The specific probe for detection of CDK9 mRNA levels was designed to the following regions of the CDK9 mRNA ORF, the forward primer 5′ TCGGACCAA AGCCTCACCGTATAA 3′, the reverse primer 5′ […] TTG 3′
(§2) Male BALB/c mice, 6-8 weeks of age and weighting 20-22 g, were purchased form the Jackson Laboratory (Bar Harbor, Me.). Synthetic siRNA were delivered in vivo using following method. For each mice 25 μg of siRNA in 100 μl of HEPES Buffered Saline (20 mM HEPES, 150 mM NaCl, pH 7.4) was transferred into a sterile tube. In a separate sterile tube 125 μg of liposome was mixed with 200 μl HEPES Buffered Saline. The siRNA solution was transferred to the tube containing liposome solution and then incubated at room temperature for 20 minutes. 200 μl of the complexes was injected via the tail vein, using a 1-ml syringe and 27-gauge needle. The injection was repeated 4 and 8 h later. Control mice were injected with an equal volume of liposome. At 24 h after the last injection, the mice were sacrificed and tissues were harvested for further analysis. CDK9 expression level was normalized with GAPDH and then compared to those obtained from control animals and shown as percent expression. The data represent the mean value +/− SD of three to five mice in each group.
Briefly, the ability of the new synthesized liposome to deliver siRNA in mice was investigated. BALB/c mice were administrated with complexes of Cy3-labeled CDk9 siRNA (25 μg) and liposome (125 μg) via normal pressure tail vein injection. The injection was repeated 4 and 8 h later. Control mice were administrated with an equal amount of liposome. […]

CDK9 expression [2] = experiment: Liposome-mediated CDK9 siRNA gene knock-down in FL83B cells, real-time RT-PCR; format: cell-based, rat; settings: CDK9 siRNA transfected with liposome
Protocol: as §1
FL83B were cultured in F-12K medium (ATCC, Manassas, Va.) with 10% fetal bovine serum at 37° C. in 5% CO2. FL83B were plated on 6-well plates at 70% confluency 24 hours before transfection. […] Gene silencing was monitored by Real-time RT-PCR.
The complexes of CDK9 siRNA (2 μg) and DOATP-Chol (10 μg) or DMTAP-Chol (10 μg) or Transfast-Chol […] were added to Opti-MEM I medium and cells were incubated in the mixture for 6 hr. […] RNA was extracted from cells using Trizol Reagent and real-time RT-PCR for CDK9 and GAPDH mRNA quantification was carried out using 200 ng of total RNA and the QuantiTect SYBR Green RT-PCR Kit. The ratio of CDK9 and GAPDH mRNA was calculated and expressed as a group average relative to the control group. […]

[3] = Tissue distribution of Cy3-labeled siRNA by fluorescence microscopy; format: in vivo, BALB/c mice; settings: 24 h after injection
Protocol: Freshly excised tissues were frozen in liquid nitrogen and mounted for crytostat sectioning. Sections of 5 μm were fixed with in 100% acetone at 4° C. for 10 min, air-dried and mounted in Vectashild with DAPI (Vector Laboratories, Inc. Burlingame, Calif.). Slides were viewed and recorded under Leica confocal microscope.
as §2, with “CDK9 expression level was normalized with GAPDH and then compared to those obtained from control animals and shown as percent expression. The data represent the mean value +/− SD of three to five mice in each group.” left out
The tissue distribution patterns of siRNA delivered in BALB/c mice using DOTAP-Chol were assessed by fluorescence microscopy.

With `CCCCCCCCC=CCCCCCCCC(=O)OC(COC(=O)CCC(=O)OC1CCC2(C)C(=CCC3C2CCC2(C)C(C(C)CCCC(C)C)CCC32)C1)C[N+](C)(C)C.[I-]` (stereo not drawn) [Lipid 8, N,N,N-Trimethyl-N-[2-(9(Z)-octadecanoyloxy),3-succinyloxy(4-cholesteryloxy)-propyl]ammonium iodide] the “CDK9 expression level in the spleen decreased by” value (CDK9 expression [1]) was 28%, the “knockdown of CDK9 expression” value (CDK9 expression [2]) was 67% and the “tissues with the highest fluorescent intensity of delivered Cy3-labeled siRNA” value [3] was “the spleen, the lung and the liver”.
